Here are results for seven molecules from patent US9499494B2, “Pyrimidine-2,4,6-triones for use in the treatment of amyotrophic lateral sclerosis” (Northwestern University, priority 2009, dated 2016).

Where a SMILES comes first, the peptide text is derived from it. The star is where a group is joined. Cbz = O=C(OCc1ccccc1)*

Type in all cases: cell-based
Test [1] concerns PC12 cells that express mutant G93A SOD1 as a YFP fusion protein. The test is described as follows: high throughput cytotoxicity protection assay. To be noted: for EC50: Rattus norvegicus, PC-12, Table 1, fluorinated PYT compounds. The text has this:
Cultured cells are utilized to conduct high throughput assays for compounds that protect against mutant SOD1-induced cytotoxicity. Two assays are used: first, in the cytotoxicity protection assay, compounds are screened for their ability to protect cells from the cytotoxic effects of aggregated mutant SOD1, irrespective of mechanism of drug action. Second, in the protein aggregation assay, compounds are screened for their ability to reduce aggregation of mutant SOD1. The high throughput cytotoxicity protection assay is the primary screen and compounds active in the primary screen (and their analogs) move forward into the secondary screen for protein aggregation.
(§1) The high throughput cytotoxicity protection assay was carried out in PC12 cells that express mutant G93A SOD1 as a YFP fusion protein from a doxycycline-inducible promoter (Matsumoto et al., J. Cell. Biol. 2005, 171, 75). […] This idea was tested by examining the sensitivity of PC12 cells to SOD1 aggregates in the presence and absence of proteasome inhibitor MG132. PC12 cells expressing no SOD1, wild type SOD1, G85R SOD1 or G93A SOD1 were grown with or without MG132 (FIG. 1). […] In these cells, protein aggregation was detected after 24 h and loss of cell viability was detected at approximately 48 h. […] The ability of protein aggregates to induce cell death was examined by treating G93A SOD1-expressing cells with MG132 for 24 h, removing the MG132 by washing and assaying cell viability after another 24 h. Because the loss of cell viability was similar following MG132 removal (FIG. 1, part C), it is likely that mutant SOD1 aggregates contribute directly to cytotoxicity in PC12 cells.
(§2) PC12 cells expressing G93A SOD1 were treated with 100 nM MG132 with or without co-treatment with geldanamycin or radicicol. […] Statistical analysis of the data produced a Z′ value of 0.55, which would predict good performance as a positive control in a high throughput screen (Zhang et al. J. Biomol. Screen 1999, 4(2), 67-73).

For test [2], the system named is PC12 cells expressing G93A SOD1. As to the kind of experiment: sensitivity of PC12 cells to proteasome inhibitor (cell viability). The method, then: as §1
The test system of test [3] is PC12 cells expressing G93A mutant SOD1. The test is described as follows: mutant SOD1 protein aggregation in G93A cells. As to the method: as §2
In PC12 cells that express wild-type SOD1, SOD1 was diffusely localized throughout the cell (Matsumoto et al. J. Cell. Biol 2005, 171(1), 75-85). […] Therefore, these effects are likely to be due to MG132-induced proteasome inhibition, and not due to an off-target effect of MG132.
The identification of a positive control is a crucial step in assay development. Thus, PC12 cells expressing G85R or G93A mutant SOD1 were treated with MG132 to induce protein aggregation, and then co-treated with candidate chemical suppressors of protein aggregation. […] Both compounds induce heat shock transcription factor HSF-1, which in turn induces the heat shock response (FIG. 4). Treatment with radicicol reduced the proportion of cells with aggregates from 75% to 25%, a sufficient difference to allow visual scoring for compounds with efficacy equal to or greater than radicicol.

Test [4] has as its system PC12 cells expressing G85R SOD1. The test is described as follows: mutant SOD1 direct protein aggregation assay. The text has this:
Compounds that are active in the above assay could theoretically protect against mutant SOD1-induced cytotoxicity through a number of mechanisms, including the following: 1) Compounds could nonspecifically block or reverse protein aggregation via chaperone induction, as observed for radicicol and geldanamycin 2) Compounds could block or reverse the aggregation of a specific aggregated protein form 3) Compounds could interfere with an event downstream of protein aggregation that plays a critical role in mutant SOD1-induced cytotoxicity (e.g., proteasome function). 4) Compounds could act directly on SOD1 in a manner that prevents mutant SOD1 aggregation. These possibilities were tested using an assay that directly measures protein aggregation. In addition, unlike the high throughput cytotoxicity protection assay, the protein aggregation assay is based on G85R SOD1; this broadens the scope of the screening strategy, and should eliminate compounds with highly specific activity (i.e., G93A SOD1 limited) against protein aggregation.
In PC12 cells that express wild-type SOD1, SOD1 was diffusely localized throughout the cell (Matsumoto et al. J. Cell. Biol 2005, 171(1), 75-85). […]
To allow this assay to be used in a high-throughput manner, a Cellomics Arrayscan® high content microscopy system was used for screening and quantification. […]

In test [5] the test system is PC12 cells expressing no SOD1, wild type SOD1 and G85R SOD1. The test is described as follows: sensitivity of PC12 cells to proteasome inhibitor (cell viability). To be noted: Rattus norvegicus, PC-12. As to the method: as §1
Setting [6] is: G93A SOD1 cells treated with 100 nM MG132, co-treatment.

Usually EC50 stands for the concentration needed to bring the measured effect to its halfway point. A lower EC50 goes with an effect from little substance. In turn, `O=C1CC(=O)N(CC(F)(F)c2ccc(Cl)cc2)C(=O)N1CC(F)(F)c1ccc(Cl)cc1` displayed a concentration for a half-maximal effect (EC50) in test [1] of 2000 to 8000 nM.
Take `CC(C)C[C@H](NC(=O)[C@H](Cc1ccccc1)NC(=O)c1cnccn1)B(O)O` [bortezomib]: the “sensitivity of PC12 cells to proteasome inhibition compared with MG132” value in test [2] was “Qualitatively similar results”.
As for `C[C@@H]1C[C@H]2O[C@@H]2/C=C\C=C\C(=O)Cc2c(Cl)c(O)cc(O)c2C(=O)O1` [radicicol], the “formation of protein aggregates” value in test [3] (setting [6]) was “reduced formation of protein aggregates”. The cell viability result in test [1] (setting [6]) is recorded as “increased cell viability in a dose-dependent manner”. Moreover, the “proportion of cells with aggregates after treatment” value in test [4] (PC12 cells expressing G85R or G93A mutant SOD1, MG132-treated, 75% without co-treatment) came to 25%.
A word on the IC50: it is the point on the concentration scale where inhibition reaches its midpoint. For `CC(C)C[C@@H](C=O)NC(=O)[C@H](CC(C)C)NC(=O)[C@H](CC(C)C)NC(=O)OCc1ccccc1` [MG132] (Cbz-Leu-Leu-Leu-aldehyde), the “cells with protein aggregates” value in test [3] (cells expressing G93A mutant SOD1 following treatment with MG132) was about 75%. Further, the “fold more sensitive than cells expressing no SOD1, wild type SOD1 or G85R SOD1” value in test [2] (G93A SOD1 cells) is “approximately 5 fold”. Further, the IC50 was about 75 nM in test [2] (Rattus norvegicus, PC-12, read-out: IC50 (cell viability)) and about 400 nM in test [5]. Also, the “cells containing protein aggregates” value in test [4] (cells expressing G85R SOD1 treated with MG132) was “up to 75%”.
With `O=C1CC(=O)N(CC(F)(F)c2ccc(F)c(F)c2)C(=O)N1CC(F)(F)c1ccc(F)c(F)c1`, in test [1], the EC50 lay within 2000 to 8000 nM.
As for `O=C1CC(=O)N(CC(F)(F)c2ccc(C(F)(F)F)cc2)C(=O)N1CC(F)(F)c1ccc(C(F)(F)F)cc1`, the EC50 in test [1] fell in the range of 2000 to 8000 nM.
As to `O=C1CC(=O)N(CC(F)(F)c2ccc(Cl)c(Cl)c2)C(=O)N1CC(F)(F)c1ccc(Cl)c(Cl)c1`, the EC50 in test [1] is 2000 to 8000 nM.
